Patent US20260240200A1, “COMPOSITION COMPRISING AN N-GUANYLAMINO ACID FOR DRINKING WATER APPLICATION” (Evonik Operations GmbH, priority 2023, published 2026)

What was measured:
[1] = Determination of the dissolution time in 10 L tap water, neither stirred nor moved; format: physicochemical; conditions: not stirred or moved
Procedure: The mixture was neither stirred nor moved. After 3 minutes there was no solid mixture at the bottom of the beaker.
A beaker with 10 L tap water was provided and 3 g (25.3 mmol) guanidinoacetic acid (GAA, powder, purchased from Gendone, China) was added. The powder sank to the bottom of the beaker. The mixture was not stirred or moved. After 4 days, no solid material was recognizable any more at the bottom of the beaker.

[2] = 15° C.; cited from earlier work

dissolution time (no solid material recognizable at the bottom of the beaker) [1]: ≤ 4 days
Compound: N=C(N)NCC(=O)O [guanidinoacetic acid]
solubility in water [2]: 1 g in 278 ml water
